Source: paper PMC12844237, “A Novel Quinolone JH62 (E-2-(Tridec-4-en-1-yl)-quinolin-4(1H)-one) from Pseudomonas aeruginosa Exhibits Potent Anticancer Activity” (Microorganisms, 2025)

Columns and labels:
[1] = tested on: DU145: human prostate cancer cell lines; assay: WST-1 cell viability, DU145; type: cell-based; details: DU-145, DU145 (prostate) cancer cell line
Excerpt: (§1) Different cells were utilized as follows: MEF: murine embryonic fibroblast (RRID: CVCL_L690); AML12: mouse liver cell lines (RRID: CVCL_0140); WI-38: human lung fibroblast cell lines (RRID: CVCL_0579); THLE-2: human liver epithelial cell lines (RRID: CVCL_3803); A549: human lung cancer cell lines (RRID: CVCL_0023); HEPG2: human liver cancer cell lines (RRID: CVCL_0027); HEP3B: human hepatoma cell lines (RRID: CVCL_0326); BxPC3: human pancreatic cancer cell lines (RRID: CVCL_0186); U87: human primary glioblastoma cell lines (RRID: CVCL_0022); DU145: human prostate cancer cell lines (RRID: CVCL_0105); MCF7: human breast cancer cell lines (RRID: CVCL_0031); HeLa: human cervical cancer cell lines (RRID: CVCL_0030); HCT116: human colon cancer cell lines (RRID: CVCL_0291). Cells were maintained in Dulbecco’s modified Eagle’s medium (DMEM, Gibco) supplemented with L-glutamine (Lonza) (2 mM), 10% fetal bovine serum (FBS, Hyclone), 1 × non-essential amino acids, and sodium pyruvate (1 mM). THLE-2 cells were maintained in THLE-2 Cell Complete Medium (Zhong Qiao Xin Zhou, Shanghai, China). Cells were incubated at 37 °C in a humidified incubator with 5% CO2. […]
(§2) Cell viability was assessed using the WST-1 assay, based on a previously reported method with slight modifications. […] Absorbance at OD450 was measured using a microplate reader (Synergy H1; BioTek Instruments, Winooski, VT, USA).

[2] = tested on: A549 lung cancer cells; assay: Cell death inhibitor rescue (zVAD-fmk, Nec-1); type: cell-based, human; details: A549, zVAD-fmk and Nec-1 individually or in combination
Excerpt: Therefore, we investigated whether zVAD-fmk and Nec-1 could attenuate JH62-induced cell death in A549 lung cancer cells.

[3] = tested on: A549 lung cancer cell colonies; assay: Cell colony formation assay; type: cell-based, human; details: compared to the control group
Excerpt: The cell colony formation assay, an in vitro method used to evaluate the proliferative capacity of cancer cells, was employed.

[4] = tested on: HEPG2: human liver cancer cell lines; assay: WST-1 cell viability, HEPG2; type: cell-based; details: HEPG2 (liver) cancer cell line
Excerpt: as §1, §2

[5] = tested on: HCT116: human colon cancer cell lines; assay: WST-1 cell viability, HCT116; type: cell-based; details: HCT-116, HCT116 (colon) cancer cell line
Excerpt: as §1, §2

**Q.** With CCCCCCCC/C=C/CCCc1cc(=O)c2ccccc2[nH]1 [JH62, E-2-(tridec-4-en-1-yl)-quinolin-4(1H)-one] as the compound, how does the IC50 [1] read?
**A.** 13.8 ± 3.3 µM

**Q.** What about the “cell death type (reversal by zVAD-fmk and Nec-1)” value [2] of the same compound?
**A.** not associated with apoptosis or necroptosis

**Q.** What about the “reduced the number of A549 lung cancer cell colonies” value ([3]; 6.3 μM) of the same compound?
**A.** 34%

**Q.** What about the “reduced the number of A549 lung cancer cell colonies” value ([3]; 12.5 μM) of the same compound?
**A.** 71%

**Q.** What about the IC50 [4] of the same compound?
**A.** 17.2 ± 0.6 µM

**Q.** And the IC50 [5]?
**A.** 8.6 ± 0.1 µM
